Reference: ChEMBL document CHEMBL1127126, “Conformationally restricted analogs of CP-99,994: synthesis of a spirocyclic amine” (Bioorg Med Chem Lett, 1993)

Target: Substance-P receptor (Homo sapiens, UniProt P25103)
Test: Tested for inhibitory activity against substance P receptor.

Chain of Substance-P receptor (P25103 whole entry): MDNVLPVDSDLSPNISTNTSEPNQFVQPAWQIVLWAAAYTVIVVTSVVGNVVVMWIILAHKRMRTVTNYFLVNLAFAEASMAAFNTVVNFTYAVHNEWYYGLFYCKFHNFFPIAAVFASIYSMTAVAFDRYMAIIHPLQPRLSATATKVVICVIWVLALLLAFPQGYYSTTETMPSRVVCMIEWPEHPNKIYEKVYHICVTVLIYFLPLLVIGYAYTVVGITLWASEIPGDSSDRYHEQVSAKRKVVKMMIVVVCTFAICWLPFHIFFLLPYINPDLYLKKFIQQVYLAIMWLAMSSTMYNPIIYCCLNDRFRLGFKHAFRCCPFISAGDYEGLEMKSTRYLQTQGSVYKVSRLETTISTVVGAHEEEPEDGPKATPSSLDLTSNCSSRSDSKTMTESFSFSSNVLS

IC50: > 1000 nM
Structure (SMILES): c1ccc([C@H]2NCCC[C@]23CC[C@H](c2ccccc2)N3)cc1
